The record followed here is patent publication US20240199587A1, “HETEROCYCLIC COMPOUNDS” (Hoffmann-La Roche Inc., priority 2021, published 2024).

pIC50: −log10 of the molar value.

The experiment addresses T1, MAGL (Homo sapiens, UniProt Q99685).
T1 sequence (Q99685 1-303): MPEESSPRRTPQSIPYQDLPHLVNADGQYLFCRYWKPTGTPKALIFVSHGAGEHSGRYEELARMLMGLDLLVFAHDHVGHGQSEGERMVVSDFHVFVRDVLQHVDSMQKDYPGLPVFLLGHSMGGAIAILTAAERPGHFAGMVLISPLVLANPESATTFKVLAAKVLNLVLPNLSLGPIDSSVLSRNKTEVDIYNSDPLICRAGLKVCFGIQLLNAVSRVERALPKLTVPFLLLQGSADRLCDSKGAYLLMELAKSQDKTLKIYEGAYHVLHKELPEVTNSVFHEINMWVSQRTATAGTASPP
As to the kind of experiment: 2-AG assay (MAGL inhibitory activity, hydrolysis of 2-arachidonoylglycerol to arachidonic acid followed by mass spectrometry). The class given is biochemical. Conditions: 8 μM 2-arachidonoylglycerol, 15 min pre-incubation, 30 min incubation at RT, RapidFire MS readout. In outline:
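Human MAGL ([…] final) pre-incubated 15 min at RT with compound in 50 mM TRIS, 1 mM EDTA, 0.01% Tween-20, 2.5% DMSO; 8 μM 2-AG then added for 30 min at RT. Acetonitrile quench with d8-arachidonic acid; arachidonic acid measured by RapidFire SPE–MS/MS, activity from arachidonic acid/d8 ratio.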
The term pIC50 denotes the IC50 on a negative log10 scale, so that one unit is a factor of ten. Read a high pIC50 as a low IC50. Compound `O=C(N1CC(Oc2nccc(C3CC3)c2Cl)C1)N1CC2(CC(n3cnc(C4CC4)n3)C2)C1` [Example 185, [3-[(3-chloro-4-cyclopropyl-2-pyridyl)oxy]azetidin-1-yl]-[6-(3-cyclopropyl-1,2,4-triazol-1-yl)-2-azaspiro[3.3]heptan-2-yl]methanone] gave a pIC50 of 10.00. `CCc1ncn(C2CC3(C2)CN(C(=O)N2CC4(CC(Cc5ccc(F)cc5F)C4)C2)C3)n1` [Example 186, [6-[(2,4-difluorophenyl)methyl]-2-azaspiro[3.3]heptan-2-yl]-[6-(3-ethyl-1,2,4-triazol-1-yl)-2-azaspiro[3.3]heptan-2-yl]methanone] had a pIC50 of 10.00. In turn, `O=C(N1CC(Oc2ccc(C(F)(F)F)c(C3CC3)c2)C1)N1CC2(CC(n3cnc(C4CC4)n3)C2)C1` [Example 187, [6-(3-cyclopropyl-1,2,4-triazol-1-yl)-2-azaspiro[3.3]heptan-2-yl]-[3-[3-cyclopropyl-4-(trifluoromethyl)phenoxy]azetidin-1-yl]methanone] had a pIC50 of 9.70.

In turn, `N#Cc1cc(C2CC2)ccc1OC1CN(C(=O)N2CC3(CC(n4cnc(C5CC5)n4)C3)C2)C1` [Example 188, 5-cyclopropyl-2-[1-[6-(3-cyclopropyl-1,2,4-triazol-1-yl)-2-azaspiro[3.3]heptane-2-carbonyl]azetidin-3-yl]oxy-benzonitrile] gave a pIC50 of 9.70. Next, `O=C(N1CC2(CC(n3cnc(C4CC4)n3)C2)C1)N1CC2(CN(Cc3ccc(C(F)(F)F)cc3F)C2)C1` [Example 189, [6-(3-cyclopropyl-1,2,4-triazol-1-yl)-2-azaspiro[3.3]heptan-2-yl]-[6-[[2-fluoro-4-(trifluoromethyl)phenyl]methyl]-2,6-diazaspiro[3.3]heptan-2-yl]methanone]: 9.70; `O=C(N1CC(Oc2ccc(C3CC3)cc2F)C1)N1CC2(CC(n3cnc(C4CC4)n3)C2)C1` [Example 190, [3-(4-cyclopropyl-2-fluoro-phenoxy)azetidin-1-yl]-[6-(3-cyclopropyl-1,2,4-triazol-1-yl)-2-azaspiro[3.3]heptan-2-yl]methanone]: 9.70. `N#Cc1c(OC2CN(C(=O)N3CC4(CC(n5cnc(C6CC6)n5)C4)C3)C2)cccc1C1CC1` [Example 191, 2-cyclopropyl-6-[1-[6-(3-cyclopropyl-1,2,4-triazol-1-yl)-2-azaspiro[3.3]heptane-2-carbonyl]azetidin-3-yl]oxy-benzonitrile] had a pIC50 of 9.70. Next, `CS(=O)(=O)c1cccc(CC2CC3(C2)CN(C(=O)N2CC4(CC(n5cnc(C6CC6)n5)C4)C2)C3)c1` [Example 192, [6-(3-cyclopropyl-1,2,4-triazol-1-yl)-2-azaspiro[3.3]heptan-2-yl]-[6-(3-mesylbenzyl)-2-azaspiro[3.3]heptan-2-yl]methanone]: 9.70; `O=C(N1CC2(CC(Cc3cnc(C(F)(F)F)cn3)C2)C1)N1CC2(CC(n3cnc(C4CC4)n3)C2)C1` [Example 193, [6-(3-cyclopropyl-1,2,4-triazol-1-yl)-2-azaspiro[3.3]heptan-2-yl]-[6-[[5-(trifluoromethyl)pyrazin-2-yl]methyl]-2-azaspiro[3.3]heptan-2-yl]methanone]: 9.52; `COC(=O)C(C)(C)Cc1cccc(OC2CN(C(=O)N3CC4(CC(n5cnc(C6CC6)n5)C4)C3)C2)c1` [Example 194, methyl 3-[3-[1-[6-(3-cyclopropyl-1,2,4-triazol-1-yl)-2-azaspiro[3.3]heptane-2-carbonyl]azetidin-3-yl]oxyphenyl]-2,2-dimethyl-propanoate]: 9.52. Next, `O=C(N1CC2(CC(NS(=O)(=O)c3cccc(C(F)(F)F)c3)C2)C1)N1CC2(CC(n3cnc(C4CC4)n3)C2)C1` [Example 195, N-[2-[6-(3-cyclopropyl-1,2,4-triazol-1-yl)-2-azaspiro[3.3]heptane-2-carbonyl]-2-azaspiro[3.3]heptan-6-yl]-3-(trifluoromethyl)benzen esulfonamide]: 9.40; `O=C(N1CC2(CC(n3cnc(C4CC4)n3)C2)C1)N1CC2(CN(Cc3ccc(F)cc3C(F)(F)F)C2)C1` [Example 196, [6-(3-cyclopropyl-1,2,4-triazol-1-yl)-2-azaspiro[3.3]heptan-2-yl]-[6-[[4-fluoro-2-(trifluoromethyl)phenyl]methyl]-2,6-diazaspiro[3.3]heptan-2-yl]methanone]: 9.40; `O=C(N1CCC([C@H](c2ccc(F)cc2)c2nc(C3CC3)no2)CC1)N1CC2(CC(n3cnc(C4CC4)n3)C2)C1` [Example 197, [4-[(R)-(3-cyclopropyl-1,2,4-oxadiazol-5-yl)-(4-fluorophenyl)methyl]-1-piperidyl]-[6-(3-cyclopropyl-1,2,4-triazol-1-yl)-2-azaspiro[3.3]heptan-2-yl]methanone]: 9.40. Next, `O=C(N1CC(Oc2cccc(C3CC3)c2F)C1)N1CC2(CC(n3cnc(C4CC4)n3)C2)C1` [Example 198, [3-(3-cyclopropyl-2-fluoro-phenoxy)azetidin-1-yl]-[6-(3-cyclopropyl-1,2,4-triazol-1-yl)-2-azaspiro[3.3]heptan-2-yl]methanone]: 9.30; `O=C(N1CC2(CC(Cc3ncc(F)cc3F)C2)C1)N1CC2(CC(n3cnc(C4CC4)n3)C2)C1` [Example 199, [6-(3-cyclopropyl-1,2,4-triazol-1-yl)-2-azaspiro[3.3]heptan-2-yl]-[6-[(3,5-difluoro-2-pyridyl)methyl]-2-azaspiro[3.3]heptan-2-yl]methanone]: 9.30.

`COC(=O)C(C)(C)c1cccc(OC2CN(C(=O)N3CC4(CC(n5cnc(C6CC6)n5)C4)C3)C2)c1` [Example 200, methyl 2-[3-[1-[6-(3-cyclopropyl-1,2,4-triazol-1-yl)-2-azaspiro[3.3]heptane-2-carbonyl]azetidin-3-yl]oxyphenyl]-2-methyl-propanoate] had a pIC50 of 9.15. `O=C(N1CC2(CC(n3cnc(C4CC4)n3)C2)C1)N1CC2(CN(Cc3ccc(F)cc3Cl)C2)C1` [Example 201, (6-(2-chloro-4-fluorobenzyl)-2,6-diazaspiro[3.3]heptan-2-yl)(6-(3-cyclopropyl-1H-1,2,4-triazol-1-yl)-2-azaspiro[3.3]heptan-2-yl)methanone] gave a pIC50 of 9.15. `O=C(N1CC(Oc2ccc(C(F)(F)F)cc2)C1)N1CC2(CC(n3cnc(C4CC4)n3)C2)C1` [Example 202, [6-(3-cyclopropyl-1,2,4-triazol-1-yl)-2-azaspiro[3.3]heptan-2-yl]-[3-[4-(trifluoromethyl)phenoxy]azetidin-1-yl]methanone] showed a negative-log IC50 (pIC50) of 9.15. Next, `CC(C)c1ncn(C2CC3(C2)CN(C(=O)N2CC4(CC(Cc5ccc(F)cc5F)C4)C2)C3)n1` [Example 203, [6-[(2,4-difluorophenyl)methyl]-2-azaspiro[3.3]heptan-2-yl]-[6-(3-isopropyl-1,2,4-triazol-1-yl)-2-azaspiro[3.3]heptan-2-yl]methanone]: 9.10.

Compound `O=C(N1CC(Oc2nccc(C3CC3)c2F)C1)N1CC2(CC(n3cnc(C4CC4)n3)C2)C1` [Example 204, [3-[(4-cyclopropyl-3-fluoro-2-pyridyl)oxy]azetidin-1-yl]-[6-(3-cyclopropyl-1,2,4-triazol-1-yl)-2-azaspiro[3.3]heptan-2-yl]methanone] had a pIC50 of 9.10.

`CS(=O)(=O)c1ccc(CC2CC3(C2)CN(C(=O)N2CC4(CC(n5cnc(C6CC6)n5)C4)C2)C3)cc1` [Example 205, [6-(3-cyclopropyl-1,2,4-triazol-1-yl)-2-azaspiro[3.3]heptan-2-yl]-[6-(4-mesylbenzyl)-2-azaspiro[3.3]heptan-2-yl]methanone] had a pIC50 of 9.05. The figure for `O=C(N1CC(c2ccc(N3CC(O)(C(F)(F)F)C3)nc2)C1)N1CC2(CC(n3cnc(C4CC4)n3)C2)C1` [Example 206, [6-(3-cyclopropyl-1,2,4-triazol-1-yl)-2-azaspiro[3.3]heptan-2-yl]-[3-[6-[3-hydroxy-3-(trifluoromethyl)azetidin-1-yl]-3-pyridyl]azetidin-1-yl]methanone] is 9.05; for `O=C(N1CCC(C(c2ccc(F)cc2)c2nc(C3CC3)no2)CC1)N1CC2(CC(n3cnc(C4CC4)n3)C2)C1` (centres unmarked) [Example 207, [4-[(3-cyclopropyl-1,2,4-oxadiazol-5-yl)-(4-fluorophenyl)methyl]-1-piperidyl]-[6-(3-cyclopropyl-1,2,4-triazol-1-yl)-2-azaspiro[3.3]heptan-2-yl]methanone] it is 9.00. The figure for `O=C(N1CC(Oc2ccc(C3CC3)nc2F)C1)N1CC2(CC(n3cnc(C4CC4)n3)C2)C1` [Example 208, [3-[(6-cyclopropyl-2-fluoro-3-pyridyl)oxy]azetidin-1-yl]-[6-(3-cyclopropyl-1,2,4-triazol-1-yl)-2-azaspiro[3.3]heptan-2-yl]methanone] is 8.96.

Consider `O=C(N1CC2(CC(n3cnc(C4CC4)n3)C2)C1)N1CC2(C1)CN(S(=O)(=O)c1cccc(C(F)(F)F)c1)C2` [Example 209, [6-(3-cyclopropyl-1,2,4-triazol-1-yl)-2-azaspiro[3.3]heptan-2-yl]-[2-[3-(trifluoromethyl)phenyl]sulfonyl-2,6-diazaspiro[3.3]heptan-6-yl]methanone], for which the pIC50 is 8.92. The figure for `O=C(N1CC(Oc2ccc(C3CC3)cn2)C1)N1CC2(CC(n3cnc(C4CC4)n3)C2)C1` [Example 210, [3-[(5-cyclopropyl-2-pyridyl)oxy]azetidin-1-yl]-[6-(3-cyclopropyl-1,2,4-triazol-1-yl)-2-azaspiro[3.3]heptan-2-yl]methanone] is 8.89.
